Key:
Type in all cases: in vivo
Monochoria vaginalis = experiment: Test Example 2: herbicidal activity, application during weed generation in submerged conditions (symbol C); settings: Table 23; application herbicide amount 320 g/ha; grade 0-5 by criteria of Test Example 1
Method in brief: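 Visual herbicidal ratings, taken three weeks after dosing, reflect post-emergence water-surface application to seedlings at one to two leaves. Conditions: co-sown weeds in alluvial soil flooded to 4 cm, greenhouse held at 25° C. to 30° C.; compound given as water-diluted emulsion at a fixed herbicide amount.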

rice = experiment: Test Example 4: effect on crop by soil treatment (symbol b); settings: for b (directly sowed rice plant) effect on crop grade: application herbicide amount 320 g/ha; for b: directly sowed rice plant, effect grade on crop: 320 g/ha
Method in brief: (§1)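 Sterilized diluvial soil, spot sowing, ~1.5 cm soil cover; greenhouse 25–30° C.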

corn = experiment: Test Example 5: effect on crop by foliage application, plastic box (symbol c); settings: 320 g/ha, 3 weeks after application
Method in brief: (§2)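 Soil: sterilized diluvial. Container: plastic box, 21 × 13 cm, 7 cm deep. Sowing: spot-like, ~1.5 cm cover. Growth: greenhouse, 25° C. to 30° C.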

transplanted rice plant = experiment: Test Example 1: effect on crop, application before weed generation in submerged conditions (symbol a); settings: application herbicide amount 320 g/ha
Method in brief: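 Rice at 2.5 leaf stage transplanted into submerged soil (4 cm depth) sown with three weed species; herbicide applied before weed emergence.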

[1] = system: Echinochloa crus-galli var. crus-galli; experiment: Test Example 5: herbicidal effect by foliage application, plastic box (symbol H); settings: 320 g/ha, 3 weeks after application
Method in brief: (§3)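 Emulsion formulation, diluted with water to the intended rate, was applied uniformly to leaves by small sprayer. Recipients were 14-day greenhouse-grown seedlings (25° C. to 30° C.). Assessment followed at 3 weeks.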

rapeseed = experiment: Test Example 5: effect on crop by foliage application, plastic box (symbol g); settings: 320 g/ha, 3 weeks after application
Method in brief: as §2

Alopecurus myosuroides [2] = experiment: Test Example 5: herbicidal effect by foliage application, plastic box (symbol J); settings: 320 g/ha, 3 weeks after application
Method in brief: as §3

Digitaria ciliaris = experiment: Test Example 5: herbicidal effect by foliage application, plastic box (symbol F); settings: 320 g/ha, 3 weeks after application
Method in brief: as §3

Scirpus juncoides = experiment: Test Example 1: herbicidal activity, application before weed generation in submerged conditions (symbol B); settings: application herbicide amount 320 g/ha
Method in brief: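 Greenhouse growth at 25–30 °C lasted 3 weeks after treatment, when each weed was graded 0–5 by herbicidal ratio. Treatment was a diluted emulsion applied to the water surface of 4 cm-submerged alluvial soil on the sowing day.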

wheat = experiment: Test Example 4: effect on crop by soil treatment (symbol e); settings: for e (wheat) effect on crop grade: application herbicide amount 320 g/ha; for e: wheat, effect grade on crop: 320 g/ha
Method in brief: as §1

soybean = experiment: Test Example 4: effect on crop by soil treatment (symbol d); settings: for d (soybean) effect on crop grade: application herbicide amount 320 g/ha; for d: soybean, effect grade on crop: 320 g/ha
Method in brief: as §1

Lolium multiflorum Lam. = experiment: Test Example 4: herbicidal effect by soil treatment (symbol K); settings: for K (Lolium multiflorum Lam.) herbicidal effect grade: application herbicide amount 320 g/ha; for K: Lolium multiflorum Lam., herbicidal effect grade: 320 g/ha
Method in brief: (§4)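 Seeds were sown in sterilized diluvial soil, covered with about 1.5 cm of soil, and the soil surface was sprayed with a water-diluted emulsion of the compound at a predetermined rate. Plants grew in a greenhouse at 25° C. to 30° C.; effects were scored visually 3 weeks after application.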

Galium spurium = experiment: Test Example 5: herbicidal effect by foliage application, plastic box (symbol Q); settings: 320 g/ha, 3 weeks after application
Method in brief: as §3

Alopecurus myosuroides [3] = experiment: Test Example 4: herbicidal effect by soil treatment (symbol J); settings: for J (Alopecurus myosuroides) herbicidal effect grade: application herbicide amount 320 g/ha; for J: Alopecurus myosuroides, herbicidal effect grade: 320 g/ha
Method in brief: as §4

CON=C(C)C(C)C1CC(O)=C(c2c(C)cc(C)cc2C)C1=O (stereo not drawn) [1-032]
Herbicidal effect grade, C: Monochoria vaginalis (Monochoria vaginalis): 3 (Herbicidal ratio of 40% or higher and lower than 70%)
b (directly sowed rice plant) effect on crop grade (rice): 5 (Herbicidal ratio of 90% or more (almost completely withered))
c: corn, effect on crop grade (corn): 5 (Herbicidal ratio of 90% or more (almost completely withered))
Effect grade on crop, a: transplanted rice plant (transplanted rice plant): 5 (Herbicidal ratio of 90% or more (almost completely withered))
H: Echinochloa crus-galli var. crus-galli, herbicidal effect grade [1]: 5 (Herbicidal ratio of 90% or more (almost completely withered))
g: rapeseed, effect on crop grade (rapeseed): 4 (Herbicidal ratio of 70% or higher and lower than 90%)
J: Alopecurus myosuroides, herbicidal effect grade (Alopecurus myosuroides [2]): 5 (Herbicidal ratio of 90% or more (almost completely withered))
F: Digitaria ciliaris, herbicidal effect grade (Digitaria ciliaris): 5 (Herbicidal ratio of 90% or more (almost completely withered))
Herbicidal effect grade, B: Scirpus juncoides (Scirpus juncoides): 5 (Herbicidal ratio of 90% or more (almost completely withered))
e (wheat) effect on crop grade (wheat): 5 (Herbicidal ratio of 90% or more (almost completely withered))
d (soybean) effect on crop grade (soybean): 0 (Herbicidal ratio of 5% or lower (almost no effect))
K (Lolium multiflorum Lam.) herbicidal effect grade (Lolium multiflorum Lam.): 5 (Herbicidal ratio of 90% or more (almost completely withered))
Q: Galium spurium, herbicidal effect grade (Galium spurium): 4 (Herbicidal ratio of 70% or higher and lower than 90%)
J (Alopecurus myosuroides) herbicidal effect grade (Alopecurus myosuroides [3]): 5 (Herbicidal ratio of 90% or more (almost completely withered))

CON=C(CC1CC(O)=C(c2c(C)cc(C)cc2C)C1=O)c1ccccn1 (stereo not drawn) [1-045]
Herbicidal effect grade, C: Monochoria vaginalis (Monochoria vaginalis): 0 (Herbicidal ratio of 5% or lower (almost no effect))
b (directly sowed rice plant) effect on crop grade (rice): 0 (Herbicidal ratio of 5% or lower (almost no effect))
c: corn, effect on crop grade (corn): 3 (Herbicidal ratio of 40% or higher and lower than 70%)
Effect grade on crop, a: transplanted rice plant (transplanted rice plant): 3 (Herbicidal ratio of 40% or higher and lower than 70%)
H: Echinochloa crus-galli var. crus-galli, herbicidal effect grade [1]: 5 (Herbicidal ratio of 90% or more (almost completely withered))
g: rapeseed, effect on crop grade (rapeseed): 2 (Herbicidal ratio of 20% or higher and lower than 40%)
J: Alopecurus myosuroides, herbicidal effect grade (Alopecurus myosuroides [2]): 5 (Herbicidal ratio of 90% or more (almost completely withered))
F: Digitaria ciliaris, herbicidal effect grade (Digitaria ciliaris): 4 (Herbicidal ratio of 70% or higher and lower than 90%)
Herbicidal effect grade, B: Scirpus juncoides (Scirpus juncoides): 2 (Herbicidal ratio of 20% or higher and lower than 40%)
e (wheat) effect on crop grade (wheat): 0 (Herbicidal ratio of 5% or lower (almost no effect))
d (soybean) effect on crop grade (soybean): 0 (Herbicidal ratio of 5% or lower (almost no effect))
K (Lolium multiflorum Lam.) herbicidal effect grade (Lolium multiflorum Lam.): 4 (Herbicidal ratio of 70% or higher and lower than 90%)
Q: Galium spurium, herbicidal effect grade (Galium spurium): 0 (Herbicidal ratio of 5% or lower (almost no effect))
J (Alopecurus myosuroides) herbicidal effect grade (Alopecurus myosuroides [3]): 0 (Herbicidal ratio of 5% or lower (almost no effect))

CON=C(C)CC1CC(OC(=O)COCc2ccccc2)=C(c2c(C)cc(C)cc2C)C1=O (stereo not drawn) [1-094]
Herbicidal effect grade, C: Monochoria vaginalis (Monochoria vaginalis): 4 (Herbicidal ratio of 70% or higher and lower than 90%)
b: directly sowed rice plant, effect grade on crop (rice): 5 (Herbicidal ratio of 90% or more (almost completely withered))
c: corn, effect on crop (criteria 0-5) (corn): 5 (Herbicidal ratio of 90% or more (almost completely withered))
Effect grade on crop, a: transplanted rice plant (transplanted rice plant): 5 (Herbicidal ratio of 90% or more (almost completely withered))
H: Echinochloa crus-galli var. crus-galli, herbicidal effect (criteria 0-5) [1]: 5 (Herbicidal ratio of 90% or more (almost completely withered))
g: rapeseed, effect on crop (criteria 0-5) (rapeseed): 4 (Herbicidal ratio of 70% or higher and lower than 90%)
J: Alopecurus myosuroides, herbicidal effect (criteria 0-5) (Alopecurus myosuroides [2]): 5 (Herbicidal ratio of 90% or more (almost completely withered))
F: Digitaria ciliaris, herbicidal effect (criteria 0-5) (Digitaria ciliaris): 5 (Herbicidal ratio of 90% or more (almost completely withered))
Herbicidal effect grade, B: Scirpus juncoides (Scirpus juncoides): 5 (Herbicidal ratio of 90% or more (almost completely withered))
e: wheat, effect grade on crop (wheat): 3 (Herbicidal ratio of 40% or higher and lower than 70%)
d: soybean, effect grade on crop (soybean): 1 (Herbicidal ratio of 5% or higher and lower than 20%)
K: Lolium multiflorum Lam., herbicidal effect grade (Lolium multiflorum Lam.): 5 (Herbicidal ratio of 90% or more (almost completely withered))
Q: Galium spurium, herbicidal effect (criteria 0-5) (Galium spurium): 0 (Herbicidal ratio of 5% or lower (almost no effect))
J: Alopecurus myosuroides, herbicidal effect grade (Alopecurus myosuroides [3]): 5 (Herbicidal ratio of 90% or more (almost completely withered))

CON=C(C)CC1CC(OC(=O)COc2ccc(I)cc2)=C(c2c(C)cc(C)cc2C)C1=O (stereo not drawn) [1-082]
Herbicidal effect grade, C: Monochoria vaginalis (Monochoria vaginalis): 3 (Herbicidal ratio of 40% or higher and lower than 70%)
b: directly sowed rice plant, effect grade on crop (rice): 5 (Herbicidal ratio of 90% or more (almost completely withered))
c: corn, effect on crop (criteria 0-5) (corn): 5 (Herbicidal ratio of 90% or more (almost completely withered))
Effect grade on crop, a: transplanted rice plant (transplanted rice plant): 5 (Herbicidal ratio of 90% or more (almost completely withered))
H: Echinochloa crus-galli var. crus-galli, herbicidal effect (criteria 0-5) [1]: 5 (Herbicidal ratio of 90% or more (almost completely withered))
g: rapeseed, effect on crop (criteria 0-5) (rapeseed): 4 (Herbicidal ratio of 70% or higher and lower than 90%)
J: Alopecurus myosuroides, herbicidal effect (criteria 0-5) (Alopecurus myosuroides [2]): 5 (Herbicidal ratio of 90% or more (almost completely withered))
F: Digitaria ciliaris, herbicidal effect (criteria 0-5) (Digitaria ciliaris): 5 (Herbicidal ratio of 90% or more (almost completely withered))
Herbicidal effect grade, B: Scirpus juncoides (Scirpus juncoides): 5 (Herbicidal ratio of 90% or more (almost completely withered))
e: wheat, effect grade on crop (wheat): 3 (Herbicidal ratio of 40% or higher and lower than 70%)
d: soybean, effect grade on crop (soybean): 2 (Herbicidal ratio of 20% or higher and lower than 40%)
K: Lolium multiflorum Lam., herbicidal effect grade (Lolium multiflorum Lam.): 5 (Herbicidal ratio of 90% or more (almost completely withered))
Q: Galium spurium, herbicidal effect (criteria 0-5) (Galium spurium): 0 (Herbicidal ratio of 5% or lower (almost no effect))
J: Alopecurus myosuroides, herbicidal effect grade (Alopecurus myosuroides [3]): 5 (Herbicidal ratio of 90% or more (almost completely withered))

CON=C(C)CC1CC(OC(=O)COc2ccccc2)=C(c2c(C)cc(C)cc2C)C1=O (stereo not drawn) [1-043]
Herbicidal effect grade, C: Monochoria vaginalis (Monochoria vaginalis): 3 (Herbicidal ratio of 40% or higher and lower than 70%)
b (directly sowed rice plant) effect on crop grade (rice): 5 (Herbicidal ratio of 90% or more (almost completely withered))
c: corn, effect on crop grade (corn): 5 (Herbicidal ratio of 90% or more (almost completely withered))
Effect grade on crop, a: transplanted rice plant (transplanted rice plant): 5 (Herbicidal ratio of 90% or more (almost completely withered))
H: Echinochloa crus-galli var. crus-galli, herbicidal effect grade [1]: 5 (Herbicidal ratio of 90% or more (almost completely withered))
g: rapeseed, effect on crop grade (rapeseed): 4 (Herbicidal ratio of 70% or higher and lower than 90%)
J: Alopecurus myosuroides, herbicidal effect grade (Alopecurus myosuroides [2]): 5 (Herbicidal ratio of 90% or more (almost completely withered))
F: Digitaria ciliaris, herbicidal effect grade (Digitaria ciliaris): 5 (Herbicidal ratio of 90% or more (almost completely withered))
Herbicidal effect grade, B: Scirpus juncoides (Scirpus juncoides): 5 (Herbicidal ratio of 90% or more (almost completely withered))
e (wheat) effect on crop grade (wheat): 4 (Herbicidal ratio of 70% or higher and lower than 90%)
d (soybean) effect on crop grade (soybean): 1 (Herbicidal ratio of 5% or higher and lower than 20%)
K (Lolium multiflorum Lam.) herbicidal effect grade (Lolium multiflorum Lam.): 5 (Herbicidal ratio of 90% or more (almost completely withered))
Q: Galium spurium, herbicidal effect grade (Galium spurium): 3 (Herbicidal ratio of 40% or higher and lower than 70%)
J (Alopecurus myosuroides) herbicidal effect grade (Alopecurus myosuroides [3]): 5 (Herbicidal ratio of 90% or more (almost completely withered))

CCCCCCCON=C(C)CC1CC(O)=C(c2c(C)cc(C)cc2C)C1=O (stereo not drawn) [1-054]
Herbicidal effect grade, C: Monochoria vaginalis (Monochoria vaginalis): 0 (Herbicidal ratio of 5% or lower (almost no effect))
b (directly sowed rice plant) effect on crop grade (rice): 5 (Herbicidal ratio of 90% or more (almost completely withered))
c: corn, effect on crop grade (corn): 0 (Herbicidal ratio of 5% or lower (almost no effect))
Effect grade on crop, a: transplanted rice plant (transplanted rice plant): 5 (Herbicidal ratio of 90% or more (almost completely withered))
H: Echinochloa crus-galli var. crus-galli, herbicidal effect grade [1]: 4 (Herbicidal ratio of 70% or higher and lower than 90%)
g: rapeseed, effect on crop grade (rapeseed): 3 (Herbicidal ratio of 40% or higher and lower than 70%)
J: Alopecurus myosuroides, herbicidal effect grade (Alopecurus myosuroides [2]): 4 (Herbicidal ratio of 70% or higher and lower than 90%)
F: Digitaria ciliaris, herbicidal effect grade (Digitaria ciliaris): 2 (Herbicidal ratio of 20% or higher and lower than 40%)
Herbicidal effect grade, B: Scirpus juncoides (Scirpus juncoides): 0 (Herbicidal ratio of 5% or lower (almost no effect))
e (wheat) effect on crop grade (wheat): 0 (Herbicidal ratio of 5% or lower (almost no effect))
d (soybean) effect on crop grade (soybean): 0 (Herbicidal ratio of 5% or lower (almost no effect))
K (Lolium multiflorum Lam.) herbicidal effect grade (Lolium multiflorum Lam.): 5 (Herbicidal ratio of 90% or more (almost completely withered))
Q: Galium spurium, herbicidal effect grade (Galium spurium): 0 (Herbicidal ratio of 5% or lower (almost no effect))
J (Alopecurus myosuroides) herbicidal effect grade (Alopecurus myosuroides [3]): 1 (Herbicidal ratio of 5% or higher and lower than 20%)
